Measurements from US8436186B2, “Thiazolyl piperidine derivatives” (Merck Patent Gesellschaft mit beschrankter Haftung, priority 2008, dated 2013).

Target: SphK1 (Homo sapiens, UniProt Q9NYA1)
Assay: SphK1 384-well flashplate kinase assay
Type: biochemical
Settings: enzyme assay
Method: The kinase assay is carried out as a 384-well flashplate assay.
5 nM modified SphK1, 800 nM omega-biotinyl-D-erythro-sphingosine and 1 μM ATP (with 0.3 μCi of ^33P-ATP/well) are incubated in a total volume of 50 μl (25 mM HEPES, 5 mM MgCl2, 1 mM dithiothreitol, 0.01% of Brij35, 0.1% of BSA (fatty acid-free), pH 7.4) without or with test substance (5-10 concentrations) at 30° C. for 120 min. The reaction is terminated using 25 μl of 200 mM EDTA solution, filtered off with suction at room temperature after 30 min, and the cavities are washed 3 times with 100 μl of 0.9% NaCl solution. The non-specific proportion of the kinase reaction (blank) is determined using 0.5 mM NaCl. Radioactivity is measured in topcount. IC50 values are calculated using RS1.

SphK1, sequence (Q9NYA1 whole entry): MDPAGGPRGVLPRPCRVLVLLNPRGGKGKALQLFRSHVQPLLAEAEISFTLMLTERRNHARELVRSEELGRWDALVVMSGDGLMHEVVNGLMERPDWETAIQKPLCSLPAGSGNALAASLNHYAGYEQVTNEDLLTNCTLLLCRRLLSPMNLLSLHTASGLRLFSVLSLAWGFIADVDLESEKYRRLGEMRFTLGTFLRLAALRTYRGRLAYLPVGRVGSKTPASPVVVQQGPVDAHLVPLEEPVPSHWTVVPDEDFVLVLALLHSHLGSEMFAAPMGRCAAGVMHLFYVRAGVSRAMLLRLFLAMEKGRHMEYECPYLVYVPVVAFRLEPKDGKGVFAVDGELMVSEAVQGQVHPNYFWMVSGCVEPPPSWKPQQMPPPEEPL

SMILES | IC50 [nM]
CC(CN1CCOCC1)CN1CCC(c2nc(-c3ccc4c(c3)C(C)(C)CCC4(C)C)cs2)CC1 (stereo not drawn) [Compound A1, 4-(2-methyl-3-{4-[4-(5,5,8,8-tetramethyl-5,6,7,8-tetrahydronaphthalen-2-yl)thiazol-2-yl]piperidin-1-yl}propyl)morpholine] | > 10000
CCN1CCCC(N2CCC(c3nc(-c4ccc5c(c4)C(C)(C)CCC5(C)C)cs3)CC2)C1 (stereo not drawn) [Compound A2, 1′-ethyl-4-[4-(5,5,8,8-tetramethyl-5,6,7,8-tetrahydronaphthalen-2-yl)thiazol-2-yl]-[1,3]bipiperidinyl] | 1000 to 10000
NC(=O)CN1CCC(c2nc(-c3ccc4c(c3)CCCC4)cs2)CC1 [Compound A3] | > 10000
CN(C)CCN1CCC(c2nc(-c3ccc4c(c3)C(C)(C)CCC4(C)C)cs2)CC1 [Compound A4] | 1000 to 10000
CN1CCCC1CCN1CCC(c2nc(-c3ccc4c(c3)C(C)(C)CCC4(C)C)cs2)CC1 (stereo not drawn) [Compound A5] | 1000 to 10000
CN(C)CCN1CCC(c2nc(-c3ccc4c(c3)CCCC4)cs2)CC1 [Compound A6] | > 10000
CN1CCCC1CCN1CCC(c2nc(-c3ccc4c(c3)CCCC4)cs2)CC1 (stereo not drawn) [Compound A7] | > 10000
CC1(C)CCC(C)(C)c2cc(-c3csc(C4CCN(CC(N)=O)CC4)n3)ccc21 [Compound A8] | 1000 to 10000
CC1(C)CCC(C)(C)c2cc(-c3csc(C4CCN(CCO)CC4)n3)ccc21 [Compound A9] | 10 to 1000
OCCN1CCC(c2nc(-c3ccc4c(c3)CCCC4)cs2)CC1 [Compound A11] | 1000 to 10000
CC1(C)CCC(C)(C)c2cc(-c3csc(C4CCN(C[C@@H](O)CO)CC4)n3)ccc21 [Compound A12] | 1000 to 10000
OCCCN1CCC(c2nc(-c3ccc4c(c3)CCCC4)cs2)CC1 [Compound A13] | 1000 to 10000
OC[C@@H](O)CN1CCC(c2nc(-c3ccc4c(c3)CCCC4)cs2)CC1 [Compound A14] | 1000 to 10000
OC[C@H](O)CN1CCC(c2nc(-c3ccc4c(c3)CCCC4)cs2)CC1 [Compound A15] | 1000 to 10000
CC1(C)CCC(C)(C)c2cc(-c3csc(C4CCN(CCCO)CC4)n3)ccc21 [Compound A16] | 1000 to 10000
COCC(O)CN1CCC(c2nc(-c3ccc4c(c3)C(C)(C)CCC4(C)C)cs2)CC1 (stereo not drawn) [Compound A17] | 10 to 1000
CCN(CC)C(=O)CN1CCC(c2nc(-c3ccc4c(c3)C(C)(C)CCC4(C)C)cs2)CC1 [Compound A18] | 1000 to 10000
CC1(C)CCC(C)(C)c2cc(-c3csc(C4CCN(CCN5CCCCC5)CC4)n3)ccc21 [Compound A19] | 1000 to 10000
CC(C)NCC(O)CN1CCC(c2nc(-c3ccc4c(c3)C(C)(C)CCC4(C)C)cs2)CC1 (stereo not drawn) [Compound A20] | 10 to 1000
CC1(C)CCC(C)(C)c2cc(-c3csc(C4CCN(CCN5CCCC5)CC4)n3)ccc21 [Compound A21] | 1000 to 10000
CC1(C)CCC(C)(C)c2cc(-c3csc(C4CCN(C[C@H](O)CO)CC4)n3)ccc21 [Compound A22] | 10 to 1000
CN1CCCCC1CCN1CCC(c2nc(-c3ccc4c(c3)C(C)(C)CCC4(C)C)cs2)CC1 (stereo not drawn) [Compound A23] | 1000 to 10000

SMILES | IC50 [nM]
CC1(C)CCC(C)(C)c2cc(-c3csc(C4CCN(CCn5c(=O)[nH]c6ccccc6c5=O)CC4)n3)ccc21 [Compound A24] | 1000 to 10000
CC1(C)CCC(C)(C)c2cc(-c3csc(C4CCN(CCN5CCOCC5)CC4)n3)ccc21 [Compound A25] | 1000 to 10000
CCN(CC)CCN1CCC(c2nc(-c3ccc4c(c3)C(C)(C)CCC4(C)C)cs2)CC1 [Compound A26] | 1000 to 10000
CC1(C)CCC(C)(C)c2cc(-c3csc(C4CCN(CC5CNC(=O)O5)CC4)n3)ccc21 (stereo not drawn) [Compound A27] | 1000 to 10000
CC1(C)CCC(C)(C)c2cc(-c3csc(C4CCN(CCCN5CCCCC5)CC4)n3)ccc21 [Compound A28] | 10 to 1000
CC(CN(C)C)N1CCC(c2nc(-c3ccc4c(c3)C(C)(C)CCC4(C)C)cs2)CC1 (stereo not drawn) [Compound A29] | 1000 to 10000
CC1(C)CCC(C)(C)c2cc(-c3csc(C4CCN(CCCCN5CCOCC5)CC4)n3)ccc21 [Compound A30] | 10 to 1000
CC1(C)CCC(C)(C)c2cc(-c3csc(C4CCN(CC(=O)N5CCOCC5)CC4)n3)ccc21 [Compound A31] | 1000 to 10000
COCCN1CCC(c2nc(-c3ccc4c(c3)C(C)(C)CCC4(C)C)cs2)CC1 [Compound A32] | 10 to 1000
CN1CCC(c2nc(-c3ccc4c(c3)C(C)(C)CCC4(C)C)cs2)CC1 [Compound A33] | 10 to 1000
CCN1CCC(c2nc(-c3ccc4c(c3)C(C)(C)CCC4(C)C)cs2)CC1 [Compound A34] | 10 to 1000
COc1ccccc1N1CCN(CCN2CCC(c3nc(-c4ccc5c(c4)C(C)(C)CCC5(C)C)cs3)CC2)CC1 [Compound A35] | > 10000
CCN(CC)CCCN1CCC(c2nc(-c3ccc4c(c3)C(C)(C)CCC4(C)C)cs2)CC1 [Compound A36] | 1000 to 10000
CC(CO)N1CCC(c2nc(-c3ccc4c(c3)C(C)(C)CCC4(C)C)cs2)CC1 (stereo not drawn) [Compound A38] | 10 to 1000
CC(CCO)N1CCC(c2nc(-c3ccc4c(c3)C(C)(C)CCC4(C)C)cs2)CC1 (stereo not drawn) [Compound A40] | 10 to 1000
CN(C)CCCNC(=O)N1CCC(c2nc(-c3ccc4c(c3)C(C)(C)CCC4(C)C)cs2)CC1 [Compound A42] | 1000 to 10000
CC1(C)CCC(C)(C)c2cc(-c3csc(C4CCN(C(=O)NCCc5ccccn5)CC4)n3)ccc21 [Compound A43] | 1000 to 10000
CC1(C)CCC(C)(C)c2cc(-c3csc(C4CCN(C(=O)NCC(N)=O)CC4)n3)ccc21 [Compound A44] | > 10000
CCN(CC)CCNC(=O)N1CCC(c2nc(-c3ccc4c(c3)C(C)(C)CCC4(C)C)cs2)CC1 [Compound A45] | > 10000
COCCCOC(=O)N1CCC(c2nc(-c3ccc4c(c3)C(C)(C)CCC4(C)C)cs2)CC1 [Compound A46, 3-methoxypropyl 4-[4-(5,5,8,8-tetramethyl-5,6,7,8-tetrahydronaphthalen-2-yl)thiazol-2-yl]piperidine-1-carboxylate] | 1000 to 10000
CN(C)CCOCCOC(=O)N1CCC(c2nc(-c3ccc4c(c3)C(C)(C)CCC4(C)C)cs2)CC1 [Compound A47] | 1000 to 10000
CC1(C)CCC(C)(C)c2cc(-c3csc(C4CCN(C(=O)OCCN5CCCC5)CC4)n3)ccc21 [Compound A49] | > 10000

SMILES | IC50 [nM]
CN1CCCC(COC(=O)N2CCC(c3nc(-c4ccc5c(c4)C(C)(C)CCC5(C)C)cs3)CC2)C1 (stereo not drawn) [Compound A50] | > 10000
CC1(C)CCC(C)(C)c2cc(-c3csc(C4CCN(C(=O)Cc5ccncc5)CC4)n3)ccc21 [Compound A51, 2-pyridin-4-yl-1-{4-[4-(5,5,8,8-tetramethyl-5,6,7,8-tetrahydronaphthalen-2-yl)thiazol-2-yl]piperidin-1-yl}ethanone] | 1000 to 10000
CC1(C)CCC(C)(C)c2cc(-c3csc(C4CCN(C(=O)c5ccncc5)CC4)n3)ccc21 [Compound A52] | 1000 to 10000
CN(C)CC(=O)N1CCC(c2nc(-c3ccc4c(c3)C(C)(C)CCC4(C)C)cs2)CC1 [Compound A55] | > 10000
CC(CO)(CO)C(=O)N1CCC(c2nc(-c3ccc4c(c3)C(C)(C)CCC4(C)C)cs2)CC1 [Compound A57] | 1000 to 10000
CC1(C)CCC(C)(C)c2cc(-c3csc(C4CCN(C(=O)[C@@H](N)Cc5cnc[nH]5)CC4)n3)ccc21 [Compound A63, (S)-2-amino-3-(3H-imidazol-4-yl)-1-{4-[4-(5,5,8,8-tetramethyl-5,6,7,8-tetrahydronaphthalen-2-yl)thiazol-2-yl]piperidin-1-yl}-propan-1-one] | 1000 to 10000
CC1(C)CCC(C)(C)c2cc(-c3csc(C4CCN(C(=O)[C@@H](N)CO)CC4)n3)ccc21 [Compound A64] | 1000 to 10000
CC1(C)CCC(C)(C)c2cc(-c3csc(C4CCN(C(=O)C5CNCCO5)CC4)n3)ccc21 (stereo not drawn) [Compound A65] | 10 to 1000
CC1(C)CCC(C)(C)c2cc(-c3csc(C4CCN(C(=O)[C@H](N)CCCCO)CC4)n3)ccc21 [Compound A66] | 10 to 1000
CC1(C)CCC(C)(C)c2cc(-c3csc(C4CCN(C(=O)CCN5CCNCC5)CC4)n3)ccc21 [Compound A67] | > 10000
CC1(C)CCC(C)(C)c2cc(-c3csc(C4CCN(C(=O)[C@H]5C[C@H](O)CN5)CC4)n3)ccc21 [Compound A68] | 1000 to 10000
CC1(C)CCC(C)(C)c2cc(-c3csc(C4CCN(C(=O)[C@@H](N)CC(N)=O)CC4)n3)ccc21 [Compound A69] | 1000 to 10000
CC1(C)CCC(C)(C)c2cc(-c3csc(C4CCN(C(=O)[C@H](N)CO)CC4)n3)ccc21 [Compound A70] | 1000 to 10000
Cn1cnc(CN2CCC(c3nc(-c4ccc5c(c4)C(C)(C)CCC5(C)C)cs3)CC2)c1 [Compound A71] | 1000 to 10000
Cc1[nH]cnc1CN1CCC(c2nc(-c3ccc4c(c3)C(C)(C)CCC4(C)C)cs2)CC1 [Compound A72] | 10 to 1000
Cn1ccnc1CN1CCC(c2nc(-c3ccc4c(c3)C(C)(C)CCC4(C)C)cs2)CC1 [Compound A73] | 10 to 1000
CC1(C)CCC(C)(C)c2cc(-c3csc(C4CCN(Cc5ccncc5)CC4)n3)ccc21 [Compound A74] | 1000 to 10000
CC1(C)CCC(C)(C)c2cc(-c3csc(C4CCN(Cc5c[nH]cn5)CC4)n3)ccc21 [Compound A75] | 10 to 1000
CN(C)CC(C)(C)CN1CCC(c2nc(-c3ccc4c(c3)C(C)(C)CCC4(C)C)cs2)CC1 [Compound A76] | > 10000
CC1(C)CCC(C)(C)c2cc(-c3csc(C4CCN(Cc5ccccn5)CC4)n3)ccc21 [Compound A77] | 1000 to 10000
COCC(C)NC(=O)N1CCC(c2nc(-c3ccc4c(c3)C(C)(C)CCC4(C)C)cs2)CC1 (stereo not drawn) [Compound A78] | 1000 to 10000
COCCCNC(=O)N1CCC(c2nc(-c3ccc4c(c3)C(C)(C)CCC4(C)C)cs2)CC1 [Compound A79] | 1000 to 10000
